From patent US9730447B2, “Fungicidal amides” (E I DU PONT DE NEMOURS AND COMPANY, priority 2013, dated 2017) come the findings set out here.

Structures are written as SMILES.

Type in all cases: in vivo
The test system of test [1] is Botrytis cinerea. Kind of test: Test A: preventive spray on tomato seedlings, Botrytis cinerea (gray mold), visual disease rating. Conditions: 100 = 100% disease control, 0 = no control relative to controls, unmarked values; for pest or weed control at 40 µg/mL, 160 g/ha: 96 h. The source says: (§1) General protocol for preparing test suspensions for Tests A-E: the test compounds were first dissolved in acetone in an amount equal to 3% of the final volume and then suspended at the desired concentration (in ppm) in acetone and purified water (50/50 mix by volume) containing 250 ppm of the surfactant Trem® 014 (polyhydric alcohol esters). The resulting test suspensions were then used in Tests A-E. Compounds were sprayed with either a 40 ppm or 10 ppm (*) test suspension to the point of run-off on the test plants which is the equivalent of a rate of 160 g ai/ha or 40 g ai/ha, respectively.
The test suspension was sprayed to the point of run-off on tomato seedlings. The following day the seedlings were inoculated with a spore suspension of Botrytis cinerea (the causal agent of gray mold on many crops) and incubated in a saturated atmosphere at 20° C. for 48 h, and moved to a growth chamber at 27° C. for 2 days, after which time visual disease ratings were made.
(§2) Results for Tests A-E are given in Table A. In the Table, a rating of 100 indicates 100% disease control and a rating of 0 indicates no disease control (relative to the controls). A dash (-) indicates no test results.

For test [2], the system named is Stagonospora nodorum (also known as Septoria nodorum). Kind of test: Test B: preventive spray on wheat seedlings, Stagonospora nodorum (wheat glume blotch), visual disease rating. Conditions: 100 = 100% disease control, 0 = no control, unmarked values.
Source text: as §1
The test suspension was sprayed to the point of run-off on wheat seedlings. The following day the seedlings were inoculated with a spore suspension of Stagonospora nodorum (also known as Septoria nodorum; the causal agent of wheat glume blotch) and incubated in a saturated atmosphere at 20° C. for 48 h, and then moved to a growth chamber at 20° C. for 6 days, after which time visual disease ratings were made.
as §2

In test [3] the test system is Puccinia recondite f. sp. tritici. The test is described as follows: Test D: preventive spray on wheat seedlings, Puccinia recondite f. sp. tritici (wheat leaf rust), visual disease rating. Conditions: 100 = 100% disease control, 0 = no control, unmarked values.
Source text: as §1
The test suspension was sprayed to the point of run-off on wheat seedlings. The following day the seedlings were inoculated with a spore suspension of Puccinia recondite f. sp. tritici; (the causal agent of wheat leaf rust) and incubated in a saturated atmosphere at 20° C. for 24 h, and then moved to a growth chamber at 20° C. for 6 days, after which time visual disease ratings were made.
as §2

Test [4] relates to Erysiphe graminis f. sp. tritici. Kind of test: Test E: preventive spray on wheat seedlings, Erysiphe graminis f. sp. tritici (wheat powdery mildew), visual disease rating. Particulars: 100 = 100% disease control, 0 = no control, unmarked values.
Source text: as §1
The test suspension was sprayed to the point of run-off on wheat seedlings. The following day the seedlings were inoculated with a spore dust of Erysiphe graminis f. sp. tritici, (the causal agent of wheat powdery mildew) and incubated in a growth chamber at 20° C. for 8 days, after which time visual disease ratings were made.
as §2

As usually defined, the pest or weed control is how far the test organism was held down. Low values mean a weak effect, high ones a strong effect. In turn, `O=C(Nc1ccccc1-c1ccc(-n2ccc(C(F)(F)F)n2)nn1)c1ncccc1C(F)(F)F` [Compound 59, 3-(trifluoromethyl)-N-[2-[6-[3-(trifluoromethyl)-1H-pyrazol-1-yl]-3-pyridazinyl]phenyl]-2-pyridinecarboxamide] displayed a pest or weed control at 40 µg/mL, 160 g/ha in test [1] of 0%.
The same measure, in the same setting: to `O=C(Nc1ccccc1-c1cnc(-n2cc(Cl)cn2)c(Cl)c1)c1ncccc1C(F)(F)F` [Compound 61, N-[2-[5-chloro-6-[4-chloro-1H-pyrazol-1-yl]-3-pyridinyl]phenyl]-3-(trifluoromethyl)-2-pyridinecarboxamide] belongs 41%; to `Cn1cc(C(=O)Nc2ccccc2-c2cnc(-n3ccc(C(F)(F)F)n3)c(F)c2)c(C(F)F)n1` [Compound 68, 3-(difluoromethyl)-N-[2-[5-fluoro-6-[3-(trifluoromethyl)-1H-pyrazol-1-yl]-3-pyridinyl]phenyl]-1-methyl-1H-pyrazole-4-carboxamide], 94%.
On the same count and under the same terms, to `CC(Cc1ccc(-n2ccc(C(F)(F)F)n2)nc1)NC(=O)c1cn(C)nc1C(F)F` (stereo not drawn) [Compound 83, 3-(difluoromethyl)-1-methyl-N-[1-methyl-2-[6-[3-(trifluoromethyl)-1H-pyrazol-1-yl]-3-pyridinyl]ethyl]-1H-pyrazole-4-carboxamide] belongs 99%.
As for `CC(Cc1ccc(-n2ccc(C(F)(F)F)n2)nc1)NC(=O)c1ncccc1C(F)(F)F` (stereo not drawn) [Compound 84, N-[1-methyl-2-[6-[3-(trifluoromethyl)-1H-pyrazol-1-yl]-3-pyridinyl]ethyl]-3-(trifluoromethyl)-2-pyridinecarboxamide], the pest or weed control at 40 µg/mL, 160 g/ha in test [1] was found to be 66%.
As for `Cn1cc(C(=O)Nc2ccccc2-c2ccc(-n3ccc(-c4cc(F)cc(F)c4)n3)nc2)c(C(F)F)n1` [compound 89], in test [1], the “Test A disease control rating” value worked out at 75%. In test [2], the “Test B disease control rating” value was determined as 0%. Moreover, in test [3], the “Test D disease control rating” value is listed as 100%. Further, the “Test E disease control rating” value in test [4] is 79%.
Turning to `Cn1cc(C(=O)Nc2ccccc2-c2ccc(-n3ccc(-c4ccccc4F)n3)nc2)c(C(F)F)n1` [compound 90], in test [1], the “Test A disease control rating” value is 93%. In addition, in test [2], the “Test B disease control rating” value is 46%. The “Test D disease control rating” value in test [3] is listed as 100%. For the same molecule, in test [4], the “Test E disease control rating” value stood at 72%.
Consider `COc1cc(OC)cc(-c2ccn(-c3ccc(-c4ccccc4NC(=O)c4cn(C)nc4C(F)F)cn3)n2)c1` [compound 91], for which the “Test A disease control rating” value in test [1] worked out at 87%. In addition, in test [2], the “Test B disease control rating” value is reported as 33%. In test [3], the “Test D disease control rating” value is reported as 100%. Further, the “Test E disease control rating” value in test [4] is on record as 56%.
Taken in the same sequence, the figures for `Cc1nc(C(F)(F)F)c(C(=O)Nc2ccccc2-c2ccc(-n3ccc(C(F)(F)F)n3)nc2)s1` [compound 92] were 0%, 60%, 100% and 98%.
Consider `Cc1ccsc1C(=O)Nc1ccccc1-c1ccc(-n2ccc(C(F)(F)F)n2)nc1` [compound 93], for which the “Test A disease control rating” value in test [1] is 0%. The “Test B disease control rating” value in test [2] is given as 97%. Besides, in test [3], the “Test D disease control rating” value amounted to 100%. Further, the “Test E disease control rating” value in test [4] is on record as 99%.
On the same counts, the results for `Cn1cc(C(=O)Nc2ccccc2-c2ccc(-n3ccc(C(F)(F)F)n3)nc2)c(C(F)(F)F)n1` [compound 94] are 0%, 98%, 100% and 99%.
Taken in the same sequence, the figures for `Cc1ccsc1C(=O)Nc1ccccc1-c1cnc(-n2ccc(C(F)(F)F)n2)c(Cl)c1` [compound 95] were 0%, 100%, 100% and 98%.
